# Source: patent US6984645B2, “Dual inhibitors of adipocyte fatty acid binding protein and keratinocyte fatty acid binding protein” (Bristol-Myers Squibb Company, priority 2001, dated 2006)
# Counter-ions that a name gives are not always drawn.
row,Compound,melting point
1,O=C(O)c1cccc(OCc2ccccc2Cl)c1OCc1ccc[n+]([O-])c1,177 to 179 °C
2,"O=C(O)C(O)c1cccc(OCc2ccccc2Cl)c1OCc1ccncc1 (stereo not drawn) [Example 344, 3-[(2-Chlorophenyl)methoxy]-α-hydroxy-2-(4-pyridinylmethoxy)benzeneacetic acid]",181 to 183 °C
3,"O=C(O)c1cccc(COc2ccccc2Cl)c1OCc1ccccc1Cl [Example 10, 3-[(2-Chlorophenoxy)methyl]-2-[(2-chlorophenyl)methoxy]benzoic acid]",172 to 174 °C
4,"O=C(O)c1cccc(OCc2ccc(Cl)cc2)c1OCc1ccc(Cl)cc1 [Example 349, 2,3-Bis[(4-chlorophenyl)methoxy]benzoic acid]",174 to 175 °C
5,"O=C(O)C(F)(F)c1cccc(OCc2ccccc2Cl)c1OCc1ccccc1Cl [Example 27, 2,3-Bis[(2-chlorophenyl)methoxy]-α,α-difluorobenzeneacetic acid]",113 to 115 °C
6,"O=C(O)c1cccc(COc2ccccc2Cl)c1COc1ccccc1Cl [Example 9, 2,3-Bis[(2-chlorophenoxy)methyl]benzoic acid]",172 to 174 °C
7,"O=C(O)C(Cc1cccc(OCc2ccccc2Cl)c1OCc1ccccc1Cl)C(=O)O [Example 7, [[2,3-Bis[(2-chlorophenyl)methoxy]phenyl]methyl]propanedioic acid]",148 to 150 °C (dec.)
8,"O=C(O)c1cccc(OCc2cc(C(F)(F)F)cc(C(F)(F)F)c2)c1OCc1cc(C(F)(F)F)cc(C(F)(F)F)c1 [Example 350, 2,3-Bis[[3,5-bis(trifluoromethyl)phenyl]methoxy]benzoic acid]",156 to 158 °C
9,"CO/N=C(/C(=O)O)c1cccc(OCc2ccccc2Cl)c1OCc1ccccc1Cl (single isomer, unassigned) [Example 340, (E or Z)-2,3-Bis[(2-chlorophenyl)methoxy]-α-(methoxyimino)benzeneacetic acid]",140 to 141 °C
10,"O=C(O)c1cccc(OCc2ccc(Cl)cc2Cl)c1OCc1ccc(Cl)cc1Cl [Example 346, 2,3-Bis[(2,4-dichlorophenyl)methoxy]benzoic acid]",168 to 169 °C
11,"O=C(O)c1cccc(OCc2ccccc2Cl)c1OCc1ccccc1Cl [Example 347, 2,3-Bis[(2-chlorophenyl)methoxy]benzoic acid]",156 to 157 °C
12,"O=C(O)C(F)c1cccc(OCc2ccccc2Cl)c1OCc1ccccc1Cl (stereo not drawn) [Example 24, 2,3-Bis[(2-chlorophenyl)methoxy]-α-fluorobenzeneacetic acid]",92 to 94 °C
13,"O=C(O)c1cccc(OCc2cccc(Cl)c2)c1OCc1cccc(Cl)c1 [Example 348, 2,3-Bis[(3-chlorophenyl)methoxy]benzoic acid]",126 to 127 °C
14,"O=C(O)Cc1cccc(OCc2ccccc2Cl)c1OCc1ccccc1Cl [Example 5, 2,3-Bis[(2-chlorophenyl)methoxy]benzeneacetic acid]",105 to 107 °C
15,"Cc1ccc(C)c(COc2cccc(C(=O)O)c2OCc2cc(C)ccc2C)c1 [Example 351, 2,3-Bis[(2,5-dimethylphenyl)methoxy]benzoic acid]",114 to 116 °C
16,Cc1cc(C)cc(COc2cccc(C(=O)O)c2OCc2cc(C)cc(C)c2)c1 [Example 352],117 to 118 °C
17,"O=C(O)c1cccc(OCc2cc(Cl)cc(Cl)c2)c1OCc1cc(Cl)cc(Cl)c1 [Example 345, 2,3-Bis[(3,5-dichlorophenyl)methoxy]benzoic acid]",219 to 220 °C
18,"O=C(O)/C=C/c1cccc(OCc2ccccc2Cl)c1OCc1ccccc1Cl [Example 4, 2-(E)-3-[2,3-Bis[(2-chlorophenyl)methoxy]phenyl]-2-propenoic acid]",187 to 189 °C
19,"CO/N=C(/C(=O)O)c1cccc(OCc2ccccc2Cl)c1OCc1ccccc1Cl (single isomer, unassigned) [Example 341, (E or Z)-2,3-Bis[(2-chlorophenyl)methoxy]-α-(methoxyimino)benzeneacetic acid]",97 to 99 °C
20,"O=C(O)C(=O)c1cccc(OCc2ccccc2Cl)c1OCc1ccccc1Cl [Example 26, 2,3-Bis[(2-chlorophenyl)methoxy]-α-oxobenzeneacetic acid]",116 to 118 °C

# Further lines, results first:
row,melting point,Compound
1,156 to 158 °C,"O=C(O)c1c(Br)ccc(OCc2ccccc2Cl)c1OCc1ccccc1Cl [Example 373, 6-Bromo-2,3-bis[(2-chlorophenyl)methoxy]benzoic acid]"
2,122 to 123 °C,"Cc1cc(C)cc(COc2c(OCc3ccccc3Cl)cccc2C(=O)O)c1 [Example 361, 3-[(2-Chlorophenyl)methoxy]-2-[(3,5-dimethylphenyl)methoxy]benzoic acid]"
3,167 to 168 °C,"O=C(Nc1c(OCc2ccccc2)cccc1C(=O)O)c1ccccc1 [Example 375, 2-(Benzoylamino)-3-(phenylmethoxy)benzoic acid]"
4,179 to 182 °C,Cn1c(COc2c(OCc3ccccc3Cl)cccc2C(=O)O)nc2ccccc21 [Example 372]
5,182 to 184 °C,"O=C(Nc1c(OCc2ccc(Cl)cc2Cl)cccc1C(=O)O)c1ccccc1 [Example 387, 2-(Benzoylamino)-3-[(2,4-dichlorophenyl)methoxy]benzoic acid]"
6,186 to 188 °C,"O=C(O)c1cccc(OCc2ccccc2Cl)c1OCc1cc[n+]([O-])cc1 [Example 369, 3-[(2-Chlorophenyl)methoxy]-2-[(1-oxido-4-pyridinyl)methoxy]benzoic acid]"
7,164 to 166 °C,"O=C(O)c1c(Br)ccc(OCc2ccccc2)c1OCc1ccccc1 [Example 374, 6-Bromo-2,3-bis(phenylmethoxy)benzoic acid]"
8,140 to 142 °C,"O=C(O)c1cccc(OCc2ccccc2)c1OCc1ccc(Cl)cc1Cl [Example 353, 2-[(2,4-Dichlorophenyl)methoxy]-3-(phenylmethoxy)benzoic acid]"
9,189 to 191 °C,"O=C(O)c1cccc(OCc2ccccc2Cl)c1OCc1cccc[n+]1[O-] [Example 367, 3-[(2-Chlorophenyl)methoxy]-2-[(1-oxido-2-pyridinyl)methoxy]benzoic acid]"
10,208 to 210 °C,"O=C(Nc1c(OCc2ccccc2)cccc1C(=O)O)c1ccc(Cl)cc1Cl [Example 381, 2-[(2,4-Dichlorobenzoyl)amino]-3-(phenylmethoxy)benzoic acid]"
11,107 to 109 °C,"O=C(O)c1cccc(OCc2ccccc2Cl)c1OCc1ccc(OCc2ccccc2)cc1 [Example 360, 3-[(2-Chlorophenyl)methoxy]-2-[[4-(phenylmethoxy)phenyl]methoxy]benzoic acid]"
12,181 to 182 °C,O=C(O)c1cccc(OCc2ccccc2Cl)c1OCc1cccnc1 [Example 365]
13,182 to 183 °C,"O=C(Nc1cccc(C(=O)O)c1OCc1ccccc1Cl)c1ccccc1Cl [Example 392, 3-[(2-Chlorobenzoyl)amino]-2-[(2-chlorophenyl)methoxy]benzoic acid]"
14,202 to 204 °C,"O=C(Nc1c(OCc2ccccc2)cccc1C(=O)O)c1cc(Cl)cc(Cl)c1 [Example 382, 2-[(3,5-Dichlorobenzoyl)amino]-3-(phenylmethoxy)benzoic acid]"
15,107 to 109 °C,"Cc1cccc(COc2c(OCc3ccccc3Cl)cccc2C(=O)O)c1 [Example 357, 3-[(2-Chlorophenyl)methoxy]-2-[(3-methylphenyl)methoxy]benzoic acid]"
16,152 to 154 °C,"O=C(O)c1cccc(OCc2ccccc2Cl)c1OCc1cccc(F)c1 [Example 358, 3-[(2-Chlorophenyl)methoxy]-2-[(3-fluorophenyl)methoxy]benzoic acid]"
17,183 to 184 °C,"O=C(O)c1cccc(OCc2ccccc2Cl)c1OCc1cccnc1Cl [Example 366, 3-[(2-Chlorophenyl)methoxy]-2-[(2-chloro-3-pyridinyl)methoxy)benzoic acid]"
18,145 to 147 °C,O=C(Nc1c(OCc2c(Cl)cccc2Cl)cccc1C(=O)O)c1ccccc1 [Example 383]
19,151 to 153 °C,"O=C(O)c1cccc(OCc2ccc(Cl)cc2Cl)c1OCc1ccccc1 [Example 354, 3-[(2,4-Dichlorophenyl)methoxy]-2-(phenylmethoxy)benzoic acid]"
20,157 to 159 °C,O=C(O)c1cccc(OCc2ccccc2Cl)c1OCc1ccncc1 [Example 364]
21,187 to 189 °C,O=C(Nc1c(OCc2cc(Cl)ccc2Cl)cccc1C(=O)O)c1ccccc1 [Example 384]
22,197 to 201 °C,"O=C(O)c1cccc(OCc2ccccc2Cl)c1OCc1nc2ccccc2[nH]1 (as salt: hydrochloride) [Example 371, 2-(1H-Benzimidazol-2-ylmethoxy)-3-[(2-chlorophenyl)methoxyl]benzoic acid, monohydrochloride]"
23,145 to 148 °C,"O=C(O)c1cccc(OCc2ccccc2Cl)c1OCc1ccc[n+]([O-])c1Cl [Example 370, 3-[(2-Chlorophenyl)methoxy]-2-[(2-chloro-1-oxido-3-pyridinyl)methoxy]benzoic acid]"
24,168 to 170 °C,O=C(O)c1cccc(OCc2ccccc2Cl)c1OCc1ccccn1 [Example 363]
25,186 to 187 °C,"O=C(O)c1cc(Br)cc(OCc2ccccc2Cl)c1OCc1ccccc1Cl [Example 355, 5-Bromo-2,3-bis[(2-chlorophenyl)methoxy]benzoic acid]"
26,110 to 112 °C,"COc1ccccc1COc1c(OCc2ccccc2Cl)cccc1C(=O)O [Example 362, 3-[(2-Chlorophenyl)methoxy]-2-[(2-methoxyphenyl)methoxy]benzoic acid]"
27,128 to 129 °C,O=C(O)c1cccc(OCc2ccccc2Cl)c1OCc1cccc(C(F)(F)F)c1 [Example 359]
28,151 to 153 °C,"O=C(O)c1cc(Br)cc(OCc2ccccc2)c1OCc1ccccc1 [Example 356, 5-Bromo-2,3-bis(phenylmethoxy)benzoic acid]"
